Source: ChEMBL document CHEMBL1134127, “A mechanism-based affinity-labeling agent for possible use in isolating N-acetylglucosaminidase” (Bioorg Med Chem Lett, 2001)

Experiment: Inhibitory activity against O-linked N-acetyl-glucosaminidase (O-GlcNAc'ase)
Design: species or system Rattus norvegicus

Work on CC(=O)NC1[C@@H](O)[C@@H](O)C(CO)O[C@H]1SC1CC(=O)N(c2ccc(C(=O)c3ccccc3)cc2)C1=O (stereo partly specified) yielded a Ki of 50 µM.
